Reference: patent publication EP4710775A1, “COMPOSITION FOR PROMOTING CHILD DEVELOPMENT” (Meiji Holdings Co., Ltd., priority 2023, dated 2024)

What was measured:
Type in all cases: in vivo, mouse (C57BL/6J)
[1] = Measurement of grip strength (forelimb) after weaning in mice given NMN in infancy; settings: three weeks after weaning; males and females combined, n = 20 per group; corrected by body weight; NMN orally gavaged days 3 to 21 after birth (500 mg/kg BW from day 14); vs control group, p < 0.05
Protocol: (§1) β-Nicotinamide mononucleotide (NMN) to be administered to mice was dissolved at a concentration of 100 mg/mL in distilled water and then used for administration.
(§2) Ten female C57BL/6J lines at day 13 of gestation were purchased. The mice were individually raised in a breeding room at a room temperature of 22 ± 2°C, humidity of 55 ± 15%, light period of 7:00 to 19:00, and dark period of 19:00 to 7:00 until the birth of the pups, and after the birth, group breeding was performed with the pups until weaning, and the born mouse pups were used for the test. […]
(§3) The body weights of all the mouse pups were measured on the day of weaning, and the pups were divided into a total of four groups: a control group and an NMN group for males and a control group and an NMN group also for females (n = 10 for each group), so that the average values of the body weights were equal. […]
Three weeks after weaning, the grip strength (forelimb only) of all the individuals was measured using Grip Strength Meter for Rats & Mice (MK-380CM/F, manufactured by Muromachi Kikai Co., Ltd.). The measurement was performed 10 times per individual, and the maximum value was recorded. […]

[2] = Open field test: amount of voluntary activity and average moving speed after weaning; settings: two weeks after weaning, 10 minutes, males and females combined, n = 20 per group, NMN orally days 3 to 21 after birth, vs control group, p < 0.05
Protocol: as §1, §2, §3
Two weeks after weaning, an open field test was performed on all the individuals to measure the amount of voluntary activity and the average moving speed. […] From the obtained moving image, the amount of voluntary activity (total movement distance) and the average moving speed (average of moving speed excluding immobility state) were calculated using dedicated analysis software (SMART3.0: manufactured by Panlab).

[3] = Measurement of plasma triglyceride concentration after weaning (Triglyceride E-test Wako); settings: two weeks after weaning, males only, NMN n = 5, control n = 7, NMN orally days 3 to 21 after birth, vs control group
Protocol: as §1
(§4) Ten female C57BL/6J lines at day 13 of gestation were purchased. The mice were individually raised in a breeding room at a room temperature of 22 ± 2°C, humidity of 55 ± 15%, light period of 7:00 to 19:00, and dark period of 19:00 to 7:00 until the birth of the pups, and after the birth, group breeding was performed with the pups until weaning, and the born mouse pups were used for the test.
(§5) All the mouse pups were subjected to sex determination on day 3 after birth, and were divided into distilled water administration (later control group) and NMN administration (later NMN group) so that the number of males and females was approximately half in the littermates. […]
(§6) The body weights of the mouse pups were measured on the day of weaning, and the pups were divided into a total of two groups: a control group (n = 7) and an NMN group (n = 5) only for males. […]
Using the separated plasma, the triglyceride concentration was measured by a kit (Triglyceride E-test Wako: No. 432-40201).

[4] = Measurement of blood glucose level in plasma after weaning (Glucose II-test Wako); settings: two weeks after weaning, males only, NMN n = 5, control n = 7, NMN orally days 3 to 21 after birth, vs control group, p < 0.01
Protocol: as §1, §4, §5, §6
Using the separated plasma, the blood glucose concentration (blood glucose level) was measured by a kit (Glucose II-test Wako: No. 439-90901).

[5] = White fat weight measurement (white adipose tissue around the reproductive organ) after weaning; settings: two weeks after weaning; relative weight corrected by body weight; males and females combined, n = 10 per group; NMN orally days 3 to 21 after birth; vs control group, p < 0.01
Protocol: as §1, §4, §5
The body weights of all the mouse pups were measured on the day of weaning, and the pups were divided into a total of four groups: a control group (n = 7) and an NMN group (n = 5) for males, and a control group (n = 3) and an NMN group (n = 5) also for females. After weaning, the mice were normally bred for 2 weeks and dissected, the white adipose tissue around the reproductive organ was extracted, and the weight thereof was measured. […]

NC(=O)c1ccc[n+]([C@@H]2O[C@H](COP(=O)([O-])O)[C@@H](O)[C@H]2O)c1 [NMN, β-Nicotinamide mononucleotide]
grip strength [1]: high as compared to that in the control group | average moving speed ([2]; excluding immobility state): high as compared to those in the control group | amount of voluntary activity ([2]; total movement distance): high as compared to those in the control group | blood triglyceride concentration [3]: tended to be low as compared to that in the control group | blood glucose levels [4]: significantly low as compared to those in the control group | white fat weight [5]: low as compared to that in the control group
